Laboratory results: patent US9730447B2, “Fungicidal amides” (E I DU PONT DE NEMOURS AND COMPANY, priority 2013, dated 2017)
Marks after values point to notes of the source that are not given here.

What was measured:
Format in all cases: in vivo
[1] = test system: Stagonospora nodorum (also known as Septoria nodorum); experiment: Test B: preventive spray on wheat seedlings, Stagonospora nodorum (wheat glume blotch), visual disease rating
From the text: (§1) General protocol for preparing test suspensions for Tests A-E: the test compounds were first dissolved in acetone in an amount equal to 3% of the final volume and then suspended at the desired concentration (in ppm) in acetone and purified water (50/50 mix by volume) containing 250 ppm of the surfactant Trem® 014 (polyhydric alcohol esters). The resulting test suspensions were then used in Tests A-E. Compounds were sprayed with either a 40 ppm or 10 ppm (*) test suspension to the point of run-off on the test plants which is the equivalent of a rate of 160 g ai/ha or 40 g ai/ha, respectively.
The test suspension was sprayed to the point of run-off on wheat seedlings. The following day the seedlings were inoculated with a spore suspension of Stagonospora nodorum (also known as Septoria nodorum; the causal agent of wheat glume blotch) and incubated in a saturated atmosphere at 20° C. for 48 h, and then moved to a growth chamber at 20° C. for 6 days, after which time visual disease ratings were made.
(§2) Results for Tests A-E are given in Table A. In the Table, a rating of 100 indicates 100% disease control and a rating of 0 indicates no disease control (relative to the controls). A dash (-) indicates no test results.

Septoria tritici = experiment: Test C: preventive spray on wheat seedlings, Septoria tritici (wheat leaf blotch), visual disease rating
From the text: as §1
The test suspension was sprayed to the point of run-off on wheat seedlings. The following day the seedlings were inoculated with a spore suspension of Septoria tritici (the causal agent of wheat leaf blotch) and incubated in a saturated atmosphere at 24° C. for 48 h, and then moved to a growth chamber at 20° C. for 21 days, after which time visual disease ratings were made.
as §2

[2] = test system: Puccinia recondite f. sp. tritici; experiment: Test D: preventive spray on wheat seedlings, Puccinia recondite f. sp. tritici (wheat leaf rust), visual disease rating
From the text: as §1
The test suspension was sprayed to the point of run-off on wheat seedlings. The following day the seedlings were inoculated with a spore suspension of Puccinia recondite f. sp. tritici; (the causal agent of wheat leaf rust) and incubated in a saturated atmosphere at 20° C. for 24 h, and then moved to a growth chamber at 20° C. for 6 days, after which time visual disease ratings were made.
as §2

[3] = test system: Erysiphe graminis f. sp. tritici; experiment: Test E: preventive spray on wheat seedlings, Erysiphe graminis f. sp. tritici (wheat powdery mildew), visual disease rating
From the text: as §1
The test suspension was sprayed to the point of run-off on wheat seedlings. The following day the seedlings were inoculated with a spore dust of Erysiphe graminis f. sp. tritici, (the causal agent of wheat powdery mildew) and incubated in a growth chamber at 20° C. for 8 days, after which time visual disease ratings were made.
as §2

[4] = 100 = 100% disease control, 0 = no control, unmarked values
[5] = values marked with asterisk (*), meaning not given

Compound | Test B disease control rating [1, 4] | Test C disease control rating (Septoria tritici; [4]) | Test D disease control rating [2, 4] | Test E disease control rating [3, 4] | Test B disease control rating [1, 5] | Test C disease control rating (Septoria tritici; [5]) | Test D disease control rating [2, 5] | Test E disease control rating [3, 5]
CCOC(=O)C1(C)CC(c2ccc(-c3ccccc3NC(=O)c3ncccc3C(F)(F)F)cn2)=NO1 (racemic) [compound 144] | 0% | 81% | 68% | 0% |  |  |  | 
CCOC(=O)C1CC(c2ccc(-c3ccccc3NC(=O)c3ncccc3C(F)(F)F)cn2)=NO1 (racemic) [compound 145] | 0% | 26% | 0% | 0% |  |  |  | 
CC1(C(=O)O)CC(c2ccc(-c3ccccc3NC(=O)c3ncccc3C(F)(F)F)cn2)=NO1 (racemic) [compound 146] | 0% | 1% | 0% | 0% |  |  |  | 
O=C(NCCc1ncc(-n2ccc(C(F)(F)F)n2)cn1)c1ccccc1C(F)(F)F [Compound 177] |  | 91% | 0% | 79% |  |  |  | 
Cc1ccn(-c2cnc(CCNC(=O)c3ncccc3C(F)(F)F)nc2)n1 [Compound 178] |  |  |  |  | 3* % | 0* % | 0* % | 0* %
O=C(NCCc1ncc(-n2ccc(Br)n2)cn1)c1ncccc1C(F)(F)F [Compound 179] | 0% |  |  |  |  | 5* % | 0* % | 0* %
O=C(NCCc1ncc(-n2cc(Br)cn2)cn1)c1ncccc1C(F)(F)F [Compound 180] | 0% |  |  |  |  | 2* % | 0* % | 0* %
O=C(NCCc1ncc(-n2ccc(Cl)n2)cn1)c1ncccc1C(F)(F)F [Compound 181] |  |  |  |  | 64* % | 20* % | 9* % | 0* %
Cc1cnn(-c2cnc(CCNC(=O)c3ncccc3C(F)(F)F)nc2)c1 [Compound 182] | 0% |  |  |  |  | 9* % | 0* % | 0* %
O=C(Nc1ccccc1-c1ccc(-n2cccn2)nc1)c1ncccc1C(F)(F)F [compound 12] | 100% | 100% | 99% | 98% |  |  |  | 
N#Cc1cc(-c2ccccc2NC(=O)c2ncccc2C(F)(F)F)cnc1-n1ccc(C(F)(F)F)n1 [compound 105] |  |  | 100% | 81% |  |  |  | 
Cn1cc(C(=O)Nc2ccccc2-c2cnc(-n3ccc(C(F)(F)F)n3)c(C#N)c2)c(C(F)F)n1 [compound 106] |  |  | 100% | 98% |  |  |  | 
Cc1nc(C(F)(F)F)c(C(=O)Nc2ccccc2-c2cnc(-n3ccc(C(F)(F)F)n3)c(C#N)c2)s1 [compound 107] |  |  | 99% | 43% |  |  |  | 
N#Cc1cc(-c2ccccc2NC(=O)c2nccnc2Cl)cnc1-n1ccc(C(F)(F)F)n1 [compound 108] |  |  | 96% | 87% |  |  |  | 
CCOC(=O)C1(C)CC(c2ccc(-c3ccccc3NC(=O)c3cn(C)nc3C(F)F)cn2)=NO1 (centres unmarked) [compound 109] |  | 66% | 74% | 0% |  |  |  | 
CCOC(=O)C1CC(c2ccc(-c3ccccc3NC(=O)c3cn(C)nc3C(F)F)cn2)=NO1 (centres unmarked) [compound 110] |  | 22% | 68% | 0% |  |  |  | 

Compound | Test B disease control rating [1, 4] | Test C disease control rating (Septoria tritici; [4]) | Test D disease control rating [2, 4] | Test E disease control rating [3, 4] | Test B disease control rating [1, 5] | Test C disease control rating (Septoria tritici; [5]) | Test D disease control rating [2, 5] | Test E disease control rating [3, 5]
O=C(Nc1ccccc1-c1cnc(-n2ccc(C(F)(F)F)n2)c(Cl)c1)c1cccs1 [compound 111] |  |  |  |  |  | 63* % | 84* % | 0* %
O=C(Nc1ccccc1-c1cnc(-n2ccc(C(F)(F)F)n2)c(Cl)c1)c1ccsc1 [compound 112] |  |  |  |  |  | 77* % | 0* % | 0* %
Cc1cc(C)c(C(=O)Nc2ccccc2-c2cnc(-n3ccc(C(F)(F)F)n3)c(Cl)c2)s1 [compound 116] |  |  |  |  |  | 99* % | 99* % | 64* %
O=C(Nc1ccccc1-c1cnc(-n2ccc(C(F)(F)F)n2)c(Cl)c1)c1occc1Br [compound 117] |  |  |  |  |  | 99* % | 99* % | 64* %
Cc1occc1C(=O)Nc1ccccc1-c1cnc(-n2ccc(C(F)(F)F)n2)c(Cl)c1 [compound 118] |  |  |  |  |  | 42* % | 68* % | 0* %
O=C(Nc1ccccc1-c1cnc(-n2ccc(C(F)(F)F)n2)c(Cl)c1)c1ccsc1Cl [compound 120] |  |  |  |  |  | 98* % | 100* % | 0* %
Cc1oncc1C(=O)Nc1ccccc1-c1cnc(-n2ccc(C(F)(F)F)n2)c(Cl)c1 [compound 128] |  |  |  |  |  | 42* % | 67* % | 13* %
Cn1ncnc1C(=O)Nc1ccccc1-c1cnc(-n2ccc(C(F)(F)F)n2)c(Cl)c1 [compound 129] |  |  |  |  |  | 88* % | 17* % | 0* %
Cc1sccc1C(=O)Nc1ccccc1-c1cnc(-n2ccc(C(F)(F)F)n2)c(Cl)c1 [compound 138] |  |  |  |  |  | 99* % | 100* % | 64* %
O=C(Nc1ccccc1-c1cnc(-n2ccc(C(F)(F)F)n2)c(Cl)c1)c1ccsc1Br [compound 139] |  |  |  |  |  | 98* % | 100* % | 40* %
CSc1ccsc1C(=O)Nc1ccccc1-c1cnc(-n2ccc(C(F)(F)F)n2)c(Cl)c1 [compound 141] |  |  |  |  |  | 76* % | 97* % | 0* %
CSc1sccc1C(=O)Nc1ccccc1-c1cnc(-n2ccc(C(F)(F)F)n2)c(Cl)c1 [compound 142] |  |  |  |  |  | 88* % | 97* % | 0* %
N#Cc1cc(-c2ccccc2NC(=O)c2sccc2I)cnc1-n1ccc(C(F)(F)F)n1 [compound 143] |  |  |  |  |  | 100* % | 100* % | 64* %
Cn1cc(C(=O)Nc2ccccc2-c2cnc(-n3cnc(C(F)(F)F)c3)c(F)c2)c(C(F)F)n1 [compound 153] |  |  |  |  |  | 99* % | 99* % | 40* %
Cc1ncsc1C(=O)Nc1ccccc1-c1cnc(-n2ccc(C(F)(F)F)n2)c(Cl)c1 [compound 164] |  |  |  |  |  | 96* % | 91* % | 69* %
